Laboratory results from ChEMBL document CHEMBL5352399, “(1R,3S)-THCCA-Asn: To show the discovery of selective inhibitor of thrombin by successfully combining virtual screening and biological assay” (Eur J Med Chem, 2022).
Activity calls are given as the source filed them. No cut-off for these calls is given here.

Experiments:
[1] = Anti-platelet aggregation activity in Sprague-Dawley rat platelet rich plasma assessed as inhibition of TH-induced aggregation preincubated with compound followed by TH addition measured after 5 mins by two channel chronology aggregometry; type: functional, cell-based
[2] = tested on: Platelet; assay: Anti-platelet aggregation activity in Sprague-Dawley rat platelet rich plasma assessed as inhibition of ADP-induced aggregation preincubated with compound followed by ADP addition measured after 5 mins by two channel chronology aggregometry; type: functional, cell-based
[3] = tested on: Rattus norvegicus; assay: Antithrombotic activity in Wistar rat model assessed as thrombus weight at 1 nmol/kg, po by polyethylene tube based method; type: functional
[4] = tested on: Platelet; assay: Anti-platelet aggregation activity in Sprague-Dawley rat platelet rich plasma assessed as inhibition of AA-induced aggregation preincubated with compound followed by AA addition measured after 5 mins by two channel chronology aggregometry; type: functional, cell-based
[5] = tested on: Platelet; assay: Anti-platelet aggregation activity in Sprague-Dawley rat platelet rich plasma assessed as inhibition of PAF-induced aggregation preincubated with compound followed by PAF addition measured after 5 mins by two channel chronology aggregometry; type: functional, cell-based
[6] = Cytotoxicity activity against human NCM460 cells assessed as cell growth inhibition incubated for 48 hrs by CCK-8 assay; type: toxicity, cell-based
[7] = Toxicity in rat thrombosis model assessed as change in tail bleeding time at 0.001 nmol/kg, po by tail bleeding time assay; type: organism-based; details: in vivo
[8] = Toxicity in rat thrombosis model assessed as bleeding in brain at 0.001 to 1 nmol/kg, po; type: tissue-based; details: in vivo, dose 0.001-1 nmol/kg
[9] = Toxicity in rat thrombosis model assessed as change in tail bleeding time at 0.01 nmol/kg, po by tail bleeding time assay; type: organism-based; details: in vivo
[10] = Cytotoxicity activity against human L02 cells assessed as cell growth inhibition incubated for 48 hrs by CCK-8 assay; type: toxicity, cell-based
[11] = Toxicity in rat thrombosis model assessed as change in tail bleeding time at 1 nmol/kg, po by tail bleeding time assay; type: organism-based; details: in vivo
[12] = Toxicity in rat thrombosis model assessed as bleeding in thoracic cavity at 0.001 to 1 nmol/kg, po; details: in vivo, dose 0.001-1 nmol/kg
[13] = Cytotoxicity activity against human NHDF cells assessed as cell growth inhibition incubated for 48 hrs by CCK-8 assay; type: toxicity, cell-based
[14] = tested on: Rattus norvegicus; assay: Anti-arterial thrombosis activity in po dosed male Wister rat thrombogenesis model assessed as thrombus weight by polyethylene tube based method; type: functional, organism-based; details: dose 0.001-1 nmol/kg
[15] = Toxicity in rat thrombosis model assessed as bleeding in inferior cavity at 0.001 to 1 nmol/kg, po; details: in vivo, dose 0.001-1 nmol/kg
[16] = tested on: Rattus norvegicus; assay: Antithrombotic activity in Wistar rat model assessed as thrombus weight at 10 nmol/kg, po by polyethylene tube based method; type: functional

Row | IC50 [1] | SMILES | inhibition [2] | Activity [3] | inhibition [4] | inhibition [5] | other results
1 | 230 nM | COC(=O)c1cc([C@H]2N[C@H](C(=O)N[C@H](C(=O)O)C(C)C)Cc3c2[nH]c2ccccc32)ccc1O | inactive | 23.69 mg | inactive | inactive | –
2 | 70 nM | COC(=O)c1cc([C@H]2N[C@H](C(=O)N[C@@H](CC(N)=O)C(=O)O)Cc3c2[nH]c2ccccc32)ccc1O | inactive | 19.19 mg | inactive | inactive | IC50 at 48 h [6]: > 125000 nM; Activity [7]: Non-Toxic; Activity [8]: Non-Toxic; Activity [9]: Non-Toxic; IC50 at 48 h [10]: > 125000 nM; Activity [11]: Non-Toxic; Activity [12]: Non-Toxic; IC50 at 48 h [13]: > 125000 nM; Activity [14]: Dose-Dependent Effect; Activity [15]: Non-Toxic
3 | 230 nM | COC(=O)c1cc([C@H]2N[C@H](C(=O)N[C@@H](C)C(=O)O)Cc3c2[nH]c2ccccc32)ccc1O | inactive | 21.66 mg | inactive | inactive | –
4 | 230 nM | COC(=O)c1cc([C@H]2N[C@H](C(=O)N[C@@H](CCC(N)=O)C(=O)O)Cc3c2[nH]c2ccccc32)ccc1O | inactive | 21.66 mg | inactive | inactive | –
5 | 70 nM | COC(=O)c1cc([C@H]2N[C@H](C(=O)N[C@@H](CO)C(=O)O)Cc3c2[nH]c2ccccc32)ccc1O | inactive | 19.19 mg | inactive | inactive | –
6 | 230 nM | COC(=O)c1cc([C@H]2N[C@H](C(=O)N[C@@H](CCCNC(=N)N)C(=O)O)Cc3c2[nH]c2ccccc32)ccc1O | inactive | 21.66 mg | inactive | inactive | –
7 | 230 nM | CC[C@H](C)[C@H](NC(=O)[C@@H]1Cc2c([nH]c3ccccc23)[C@@H](c2ccc(O)c(C(=O)OC)c2)N1)C(=O)O | inactive | 21.66 mg | inactive | inactive | –
8 | 1750 nM | COC(=O)c1cc([C@H]2N[C@H](C(=O)N[C@@H](CC(C)C)C(=O)O)Cc3c2[nH]c2ccccc32)ccc1O | inactive | 23.69 mg | inactive | inactive | –
9 | 1750 nM | COC(=O)c1cc([C@H]2N[C@H](C(=O)N[C@@H](CCC(=O)O)C(=O)O)Cc3c2[nH]c2ccccc32)ccc1O | inactive | 23.69 mg | inactive | inactive | –
10 | 1750 nM | COC(=O)c1cc([C@H]2N[C@H](C(=O)NCC(=O)O)Cc3c2[nH]c2ccccc32)ccc1O | inactive | 23.69 mg | inactive | inactive | –
11 | 70 nM | COC(=O)c1cc([C@H]2N[C@H](C(=O)N[C@@H](Cc3ccc(O)cc3)C(=O)O)Cc3c2[nH]c2ccccc32)ccc1O | inactive | 19.19 mg | inactive | inactive | –
12 | 1750 nM | COC(=O)c1cc([C@H]2N[C@H](C(=O)N[C@@H](Cc3ccccc3)C(=O)O)Cc3c2[nH]c2ccccc32)ccc1O | inactive | 23.69 mg | inactive | inactive | –
13 | – | COC(=O)c1cc([C@H]2N[C@H](C(=O)O)Cc3c2[nH]c2ccccc32)ccc1O | – | – | – | – | Activity [16]: 23.17 mg
14 | 1750 nM | COC(=O)c1cc([C@H]2N[C@H](C(=O)N[C@@H](CC(=O)O)C(=O)O)Cc3c2[nH]c2ccccc32)ccc1O | inactive | 23.69 mg | inactive | inactive | –
15 | 1750 nM | COC(=O)c1cc([C@H]2N[C@H](C(=O)N[C@H](C(=O)O)[C@@H](C)O)Cc3c2[nH]c2ccccc32)ccc1O | inactive | 23.69 mg | inactive | inactive | –
16 | 230 nM | COC(=O)c1cc([C@H]2N[C@H](C(=O)N[C@@H](Cc3c[nH]c4ccccc34)C(=O)O)Cc3c2[nH]c2ccccc32)ccc1O | inactive | 21.66 mg | inactive | inactive | –
17 | 70 nM | COC(=O)c1cc([C@H]2N[C@H](C(=O)N[C@@H](CCCCN)C(=O)O)Cc3c2[nH]c2ccccc32)ccc1O | inactive | 19.19 mg | inactive | inactive | –
